In patent publication US9522928B2, “Mannosylated compounds useful for the prevention and the treatment of infectious diseases” (UNIVERSITE DE STRASBOURG, priority 2011, dated 2016):
“Also recorded” adds a separate entry of the source.

How the values were obtained:
DC-SIGN CRD = molecular target: T1, DC-SIGN CRD (Homo sapiens, UniProt Q9NNX6); assay: Surface plasmon resonance (SPR) binding to immobilised DC-SIGN CRD; details: Kd=koff/kon
T1 construct: human DC-SIGN (Lys62-Ala404, from R§D Systems); purchased R&D Systems ('R§D Systems' [sic])
T1 sequence (Q9NNX6 62-404): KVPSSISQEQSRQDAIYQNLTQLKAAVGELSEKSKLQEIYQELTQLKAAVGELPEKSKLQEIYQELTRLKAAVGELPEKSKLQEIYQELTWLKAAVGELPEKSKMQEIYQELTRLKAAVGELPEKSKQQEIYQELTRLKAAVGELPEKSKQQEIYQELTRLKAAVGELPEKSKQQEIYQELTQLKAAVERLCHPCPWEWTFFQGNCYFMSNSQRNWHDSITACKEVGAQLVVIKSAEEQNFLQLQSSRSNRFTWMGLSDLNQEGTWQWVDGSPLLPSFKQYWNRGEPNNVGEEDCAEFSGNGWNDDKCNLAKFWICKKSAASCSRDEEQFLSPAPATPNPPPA
Protocol: SPR experiments were performed using a Biacore 3000. […] Biosensor assays were performed with HEPES-buffered saline (10 mM HEPES, 150 mM sodium chloride, pH 7.4) containing 0.005% surfactant P20 and 5 mM CaCl2 as a running buffer. All binding experiments were carried out at 25° C. with a constant flow rate of 20 μl/min. The different compounds dissolved in the running buffer (0.39 to 50 μM) were injected for 3 min, followed by a dissociation phase of 3 min. The sensor chip surface was regenerated after each experiment by injecting 10 μL of EDTA 0.5 M pH 8.0. A simple channel activated by EDC/NHS and deactivated with ethanolamine was used as control. The kinetic parameters were calculated using the BlAeval 4.1 software. Analysis was performed using the simple Langmuir binding model with separate ka/kd (kon/koff). The specific binding profiles were obtained after subtracting the response signal from the control channel and from blank-buffer injection. The fitting to each model was judged by the chi square value and randomness of residue distribution compared to the theoretical model (Langmuir binding 1:1).
The binding affinity of mannoside derivatives for the carbohydrate recognition domain (CRD) of DC-SIGN was assessed by surface plasmon resonance (SPR).
A CM5 sensor chip was functionalized with the DC-SIGN CRD, and increasing concentrations of the various compounds, mannan as a positive control and octaethyleneglycol (OEG) as a negative control, were injected over the chip surface. The association (kon) and dissociation (koff) rate constants and the resulting dissociation equilibrium constant (Kd=koff/kon) for each assessed compound were determined (see Table 1 hereunder).

Dengue virus 2 (DV2) = assay: Dengue virus (DV2) cis-infection of human DCs; type: cell-based
Protocol: Compounds of the invention (TriManC24, TriManinsatC24) were serially diluted in water. Human DCs (2.5×10^5 in 200 μl) in 48-well plates were pre-treated with different concentrations of compounds or culture medium alone, in RPMI 1640 medium […] for 30 min at 37° C. They were exposed to DV-2 at a multiplicity of infection of 1.0, for 2 h at 37° C. Cells were washed and cultured in complete RPMI medium (condition 1) or in complete medium containing the tested compounds (TriManC24, TriMannsatC24) (condition 2). After 48 h, supernatants were titered and cells were subjected to intracellular detection of viral antigens. DCs were fixed with 4% (v/v) paraformaldehyde and permeabilized with 0.1% (v/v) Triton X-100 for 3 min at room temperature. After washing, they were labeled with mouse anti-DV type 2 monoclonal antibody (3H5.1, Millipore) and stained with APC -conjugated rat anti-mouse IgG1. Fluorescence intensity of the cells was analyzed by flow cytometry (FACSCalibur, Becton Dickinson), using the Cell Quest Pro software.
There are four different dengue serotypes (1-4), and we have used DV type 2 (DV2) to further investigate the ability of the compounds of the invention (TriManC24 and TriManinsatC24) to inhibit the infection of human DCs. These cells were pre-treated with different concentrations of compounds or culture medium alone, for 30 min at 37° C. They were then exposed to DV2 for 2 hours at 37° C. Cells were washed to remove excess virions and compounds, and further cultured either in the absence (condition 1) or in the presence (condition 2) of the tested compounds. After 48 hours, cells were subjected to intracellular detection of viral antigens, and supernatants were titrated (not shown). […] FIG. 3A and FIG. 3B show the percentage of infected DCs when incubated with distinct concentrations of TriManinsatC24 in condition 1 and in condition 2, respectively. The histograms clearly show the protecting effects of TriManinsatC24, in particular in condition 2 wherein TriManinsatC24 at 10, 50 and 100 μM enabled the percentage of infected DCs to be reduced down to 40%, 20% and 2% respectively.

Which results are given for `CCCCCCCCCCCCCCCCCCCCCCCCC(=O)NC(COCCC(=O)NCCOCCOCCOCCOC1OC(CO)C(O)C(O)C1O)(COCCC(=O)NCCOCCOCCOCCOC1OC(CO)C(O)C(O)C1O)COCCC(=O)NCCOCCOCCOCCOC1OC(CO)C(O)C(O)C1O` (stereo not drawn) [TriManC24]?
KD (μM) (DC-SIGN CRD): low micromolar range; also recorded: Sub-micromolar; Kd (DC-SIGN CRD): 3.19 µM; inhibition of Dengue virus infection of DCs (in words) (Dengue virus 2 (DV2)): able to inhibit the direct infection of DCs by Dengue virus
